Data from patent publication EP0238060B1, “Cephalosporin derivatives, processes for their preparation and antibacterial agents” (Banyu Pharmaceutical Co., Ltd., priority 1986, dated 1987).
Values after ≈ are worked out from the molar mass of the structure shown. Read-outs that look alike come from different tables or passages of the source.

Legend:
Experiment in all cases: In vitro antibacterial activity, agar plate dilution method (MIC)
[1] = test system: Ps.cepacia 23; format: cell-based, Pseudomonas cepacia; conditions: Burkholderia cepacia; Ps.cepacia 23; Mueller Hinton agar, inoculum 10⁶ CFU/ml, 37°C, 16 hours; read-out: Minimum Inhibitory Concentration (MIC: µg/ml)
Procedure: (§1) The in vitro antibacterial activities of the compounds of the present invention against various microorganisms, were measured by the following agar plate dilution method. One platinum loopfull of each test microorganism incubated overnight in Mueller Hinton broth, was inoculated to Mueller Hinton agar (inoculum size: l0⁶ CFU/ml). Such culture media containing various antibiotics in various concentrations were prepared. After incubation at 37°C for l6 hours, the minimum inhibitory concentrations (MIC: µg/ml) were measured. As comparative compounds, Cefotaxime, Ceftazidime and the compounds of Reference Examples l to 4 were employed.

[2] = test system: Ps.maltophilia GN 12873; format: cell-based, Pseudomonas maltophilia; conditions: Stenotrophomonas maltophilia, GN12873; Ps.maltophilia GN 12873 (β-Lactamase-producing strain); Mueller Hinton agar, inoculum 10⁶ CFU/ml, 37°C, 16 hours; read-out: Minimum Inhibitory Concentration (MIC: µg/ml)
Procedure: as §1

[3] = test system: A.calcoaceticus No. 4; format: cell-based; conditions: Acinetobacter calcoaceticus; A.calcoaceticus No. 4; Mueller Hinton agar, inoculum 10⁶ CFU/ml, 37°C, 16 hours; read-out: Minimum Inhibitory Concentration (MIC: µg/ml)
Procedure: as §1

[4] = test system: C.freundii GN346/16; format: cell-based; conditions: Citrobacter freundii; C.freundii GN346/16; Mueller Hinton agar, inoculum 10⁶ CFU/ml, 37°C, 16 hours; read-out: Minimum Inhibitory Concentration (MIC: µg/ml)
Procedure: as §1

[5] = test system: P.vulgaris HX-19; format: cell-based; conditions: Proteus vulgaris, HX19; P.vulgaris HX-19; Mueller Hinton agar, inoculum 10⁶ CFU/ml, 37°C, 16 hours; read-out: Minimum Inhibitory Concentration (MIC: µg/ml)
Procedure: as §1

[6] = test system: S.epidermidis IAM12012; format: cell-based; conditions: Staphylococcus epidermidis; S.epidermidis IAM12012; Mueller Hinton agar, inoculum 10⁶ CFU/ml, 37°C, 16 hours; read-out: Minimum Inhibitory Concentration (MIC: µg/ml)
Procedure: as §1

[7] = test system: K.pneumoniae No. 42; format: cell-based; conditions: Klebsiella pneumoniae; K.pneumoniae No. 42 (β-Lactamase-producing strain); Mueller Hinton agar, inoculum 10⁶ CFU/ml, 37°C, 16 hours; read-out: Minimum Inhibitory Concentration (MIC: µg/ml)
Procedure: as §1

[8] = test system: M.luteus ATCC9341; format: cell-based; conditions: Micrococcus luteus; M.luteus ATCC9341; Mueller Hinton agar, inoculum 10⁶ CFU/ml, 37°C, 16 hours; read-out: Minimum Inhibitory Concentration (MIC: µg/ml)
Procedure: as §1

[9] = test system: M.morganii GN5407; format: cell-based; conditions: Morganella morganii; M.morganii GN5407 (β-Lactamase-producing strain); Mueller Hinton agar, inoculum 10⁶ CFU/ml, 37°C, 16 hours; read-out: Minimum Inhibitory Concentration (MIC: µg/ml)
Procedure: as §1

[10] = test system: S.marcescens No. 16-2; format: cell-based; conditions: Serratia marcescens, NO.162; S.marcescens No. 16-2 (β-Lactamase-producing strain); Mueller Hinton agar, inoculum 10⁶ CFU/ml, 37°C, 16 hours; read-out: Minimum Inhibitory Concentration (MIC: µg/ml)
Procedure: as §1

[11] = test system: K.oxytoca GN10650; format: cell-based; conditions: Klebsiella oxytoca, read-out: Minimum Inhibitory Concentration (MIC: µg/ml)
Procedure: as §1

[12] = test system: S.marcescens IAM 1184; format: cell-based; conditions: Serratia marcescens, IAM1184; S.marcescens IAM 1184; Mueller Hinton agar, inoculum 10⁶ CFU/ml, 37°C, 16 hours; read-out: Minimum Inhibitory Concentration (MIC: µg/ml)
Procedure: as §1

[13] = test system: E.coli GN5482; format: cell-based; conditions: Escherichia coli; E.coli GN5482 (β-Lactamase-producing strain); Mueller Hinton agar, inoculum 10⁶ CFU/ml, 37°C, 16 hours; read-out: Minimum Inhibitory Concentration (MIC: µg/ml)
Procedure: as §1

[14] = test system: Ps.aeruginosa IFO3445; format: cell-based; conditions: Pseudomonas aeruginosa; Ps.aeruginosa IFO3445; Mueller Hinton agar, inoculum 10⁶ CFU/ml, 37°C, 16 hours; read-out: Minimum Inhibitory Concentration (MIC: µg/ml)
Procedure: as §1

[15] = test system: S.aureus 209P NIHJ-JC1; format: cell-based; conditions: Staphylococcus aureus; S.aureus 209P NIHJ-JC1; Mueller Hinton agar, inoculum 10⁶ CFU/ml, 37°C, 16 hours; read-out: Minimum Inhibitory Concentration (MIC: µg/ml)
Procedure: as §1

[16] = test system: E.cloacae 963; format: cell-based; conditions: Enterobacter cloacae; E.cloacae 963; Mueller Hinton agar, inoculum 10⁶ CFU/ml, 37°C, 16 hours; read-out: Minimum Inhibitory Concentration (MIC: µg/ml)
Procedure: as §1

[17] = test system: S.aureus JS1; format: cell-based; conditions: Staphylococcus aureus; S.aureus JS1 (β-Lactamase-producing strain); Mueller Hinton agar, inoculum 10⁶ CFU/ml, 37°C, 16 hours; read-out: Minimum Inhibitory Concentration (MIC: µg/ml)
Procedure: as §1

[18] = test system: S.aureus BB5703; format: cell-based; conditions: Staphylococcus aureus; S.aureus BB5703; Mueller Hinton agar, inoculum 10⁶ CFU/ml, 37°C, 16 hours; read-out: Minimum Inhibitory Concentration (MIC: µg/ml)
Procedure: as §1

[19] = test system: E.coli CSH(RE45); format: cell-based; conditions: Escherichia coli, 16 h, read-out: Minimum Inhibitory Concentration (MIC: µg/ml)
Procedure: as §1

[20] = test system: Ps.aeruginosa AKR17; format: cell-based; conditions: Pseudomonas aeruginosa; Ps.aeruginosa AKR17; Mueller Hinton agar, inoculum 10⁶ CFU/ml, 37°C, 16 hours; read-out: Minimum Inhibitory Concentration (MIC: µg/ml)
Procedure: as §1

[21] = test system: Ps.aeruginosa AK 109; format: cell-based; conditions: Pseudomonas aeruginosa, AK109; Ps.aeruginosa AK 109; Mueller Hinton agar, inoculum 10⁶ CFU/ml, 37°C, 16 hours; read-out: Minimum Inhibitory Concentration (MIC: µg/ml)
Procedure: as §1

[22] = test system: E.cloacae Nek 39; format: cell-based; conditions: Enterobacter cloacae, NEK39; E.cloacae Nek 39 (β-Lactamase-producing strain); Mueller Hinton agar, inoculum 10⁶ CFU/ml, 37°C, 16 hours; read-out: Minimum Inhibitory Concentration (MIC: µg/ml)
Procedure: as §1

[23] = test system: K.pneumoniae PCI-602; format: cell-based; conditions: Klebsiella pneumoniae, PCI602; K.pneumoniae PCI-602; Mueller Hinton agar, inoculum 10⁶ CFU/ml, 37°C, 16 hours; read-out: Minimum Inhibitory Concentration (MIC: µg/ml)
Procedure: as §1

[24] = test system: P.vulgaris No. 33; format: cell-based; conditions: Proteus vulgaris, read-out: Minimum Inhibitory Concentration (MIC: µg/ml)
Procedure: as §1

[25] = test system: E.coli CSH2 (RK1); format: cell-based; conditions: Escherichia coli, 16 h, read-out: Minimum Inhibitory Concentration (MIC: µg/ml)
Procedure: as §1

[26] = test system: E.coli NIHJ JC2; format: cell-based; conditions: Escherichia coli, NIHJJC2; E.coli NIHJ JC2; Mueller Hinton agar, inoculum 10⁶ CFU/ml, 37°C, 16 hours; read-out: Minimum Inhibitory Concentration (MIC: µg/ml)
Procedure: as §1

[27] = test system: C.freundii GN346; format: cell-based; conditions: Citrobacter freundii; C.freundii GN346 (β-Lactamase-producing strain); Mueller Hinton agar, inoculum 10⁶ CFU/ml, 37°C, 16 hours; read-out: Minimum Inhibitory Concentration (MIC: µg/ml)
Procedure: as §1

[28] = K.oxytoca GN10650 (β-Lactamase-producing strain), Mueller Hinton agar, inoculum 10⁶ CFU/ml, 37°C, 16 hours
[29] = P.vulgaris No. 33 (β-Lactamase-producing strain), Mueller Hinton agar, inoculum 10⁶ CFU/ml, 37°C, 16 hours

## CO/N=C(\C(=O)NC1C(=O)N2C(C(=O)[O-])=C(C[n+]3ccc4cc(O)c(O)cc4c3)CSC12)c1csc(N)n1 (stereo not drawn) [Ex. 1, 7-[2-(2-aminothiazol-4-yl)-2-methoxyiminoacetamido]-3-(6,7-dihydroxy-2-isoquinolinio)-methyl-3-cephem-4-carboxylate]
[1]
  MIC: 0.78 µg/mL (≈ 1.4 µM)
[2]
  MIC: > 100 µg/mL
[3]
  MIC: 0.2 µg/mL (≈ 0.359 µM)
[4]
  MIC: 0.78 µg/mL (≈ 1.4 µM)
[5]
  MIC: < 0.006 µg/mL
[6]
  MIC: 0.78 µg/mL (≈ 1.4 µM)
[7]
  MIC: 0.025 µg/mL (≈ 0.0449 µM)
[8]
  MIC: 0.1 µg/mL (≈ 0.18 µM)
[9]
  MIC: 0.1 µg/mL (≈ 0.18 µM)
[10]
  MIC: 3.12 µg/mL (≈ 5.61 µM)
[11]; [28]
  MIC: 0.78 µg/mL (≈ 1.4 µM)
[12]
  MIC: 0.0125 µg/mL (≈ 0.0225 µM)
[13]
  MIC: 0.39 µg/mL (≈ 0.701 µM)
[14]
  MIC: 0.78 µg/mL (≈ 1.4 µM)
[15]
  MIC: 1.56 µg/mL (≈ 2.8 µM)
[16]
  MIC: 0.025 µg/mL (≈ 0.0449 µM)
[17]
  MIC: 25 µg/mL (≈ 44.9 µM)
[18]
  MIC: 3.12 µg/mL (≈ 5.61 µM)
[19]
  MIC: 0.78 µg/mL (≈ 1.4 µM)
[20]
  MIC: 100 µg/mL (≈ 180 µM)
[21]
  MIC: 0.78 µg/mL (≈ 1.4 µM)
[22]
  MIC: 0.1 µg/mL (≈ 0.18 µM)
[23]
  MIC: < 0.006 µg/mL
[24]; [29]
  MIC: 0.1 µg/mL (≈ 0.18 µM)
[25]
  MIC: < 0.006 µg/mL
[26]
  MIC: 0.05 µg/mL (≈ 0.0898 µM)
[27]
  MIC: 25 µg/mL (≈ 44.9 µM)

## CO/N=C(\C(=O)N[C@@H]1C(=O)N2C(C(=O)O)=C(COC(C)=O)CS[C@H]12)c1csc(N)n1 [Cefotaxime, reference compound]
[1]
  MIC: 6.25 µg/mL (≈ 13.7 µM)
[2]
  MIC: > 100 µg/mL
[3]
  MIC: 25 µg/mL (≈ 54.9 µM)
[4]
  MIC: 0.1 µg/mL (≈ 0.22 µM)
[5]
  MIC: < 0.006 µg/mL
[6]
  MIC: 0.39 µg/mL (≈ 0.856 µM)
[7]
  MIC: 0.05 µg/mL (≈ 0.11 µM)
[8]
  MIC: 0.05 µg/mL (≈ 0.11 µM)
[9]
  MIC: 0.05 µg/mL (≈ 0.11 µM)
[10]
  MIC: 25 µg/mL (≈ 54.9 µM)
[11]; [28]
  MIC: 0.78 µg/mL (≈ 1.71 µM)
[12]
  MIC: 0.05 µg/mL (≈ 0.11 µM)
[13]
  MIC: 0.39 µg/mL (≈ 0.856 µM)
[14]
  MIC: 3.12 µg/mL (≈ 6.85 µM)
[15]
  MIC: 1.56 µg/mL (≈ 3.43 µM)
[16]
  MIC: 0.1 µg/mL (≈ 0.22 µM)
[17]
  MIC: 25 µg/mL (≈ 54.9 µM)
[18]
  MIC: 3.12 µg/mL (≈ 6.85 µM)
[19]
  MIC: 0.2 µg/mL (≈ 0.439 µM)
[20]
  MIC: > 100 µg/mL
[21]
  MIC: 12.5 µg/mL (≈ 27.4 µM)
[22]
  MIC: 3.12 µg/mL (≈ 6.85 µM)
[23]
  MIC: < 0.006 µg/mL
[24]; [29]
  MIC: 0.025 µg/mL (≈ 0.0549 µM)
[25]
  MIC: 0.05 µg/mL (≈ 0.11 µM)
[26]
  MIC: 0.05 µg/mL (≈ 0.11 µM)
[27]
  MIC: 25 µg/mL (≈ 54.9 µM)

## Nc1nc(/C(=N/OC2(C(=O)O)CCCC2)C(=O)NC2C(=O)N3C(C(=O)[O-])=C(C[n+]4ccc5cc(O)c(O)cc5c4)CSC23)cs1 (stereo not drawn) [Ex. 5, 7-[2-(2-aminothiazol-4-yl)-2-(l-carboxy-l-cyclopentyloxyimino)acetamido]-3-(6,7-dihydroxy-2-isoquinolinio)methyl-3-cephem-4-carboxylate]
[1]
  MIC: < 0.006 µg/mL
[2]
  MIC: 1.56 µg/mL (≈ 2.38 µM)
[3]
  MIC: 0.1 µg/mL (≈ 0.153 µM)
[4]
  MIC: 1.56 µg/mL (≈ 2.38 µM)
[5]
  MIC: < 0.006 µg/mL
[6]
  MIC: 6.25 µg/mL (≈ 9.55 µM)
[7]
  MIC: 0.05 µg/mL (≈ 0.0764 µM)
[8]
  MIC: 3.12 µg/mL (≈ 4.77 µM)
[9]
  MIC: 0.1 µg/mL (≈ 0.153 µM)
[10]
  MIC: 0.1 µg/mL (≈ 0.153 µM)
[11]; GN10650, 16 h
  MIC: 0.0125 µg/mL (≈ 0.0191 µM)
[12]
  MIC: < 0.006 µg/mL
[13]
  MIC: 0.2 µg/mL (≈ 0.305 µM)
[14]
  MIC: 0.39 µg/mL (≈ 0.596 µM)
[15]
  MIC: 25 µg/mL (≈ 38.2 µM)
[16]
  MIC: 0.05 µg/mL (≈ 0.0764 µM)
[17]
  MIC: 100 µg/mL (≈ 153 µM)
[18]
  MIC: 50 µg/mL (≈ 76.4 µM)
[19]
  MIC: 0.78 µg/mL (≈ 1.19 µM)
[20]
  MIC: 0.39 µg/mL (≈ 0.596 µM)
[21]
  MIC: 0.39 µg/mL (≈ 0.596 µM)
[22]
  MIC: < 0.006 µg/mL
[23]
  MIC: < 0.006 µg/mL
[24]; NO.33, 16 h
  MIC: 0.0125 µg/mL (≈ 0.0191 µM)
[25]
  MIC: 0.0125 µg/mL (≈ 0.0191 µM)
[26]
  MIC: 0.05 µg/mL (≈ 0.0764 µM)
[27]
  MIC: 50 µg/mL (≈ 76.4 µM)
